Patent US10676471B2, “Cycloalkyl-linked diheterocycle derivatives” (Pfizer Inc., priority 2014, dated 2020)

Tested on: BT20 Cell
Assay: Cancer Cell Lysate Total L-Glutamate Assay
Assay type: cell-based
Details: Homo sapiens, BT-20, 2 h, total L-glutamate in cell lysate, BT20 cells, 2 hour incubation with test compound
Experimental: Cancer Cell Lysate Total L-Glutamate Assay
Cancer cell lines (BT20, HCT116, SKOV3, HCC70, SUM149, MDA-MB-231, etc.) were plated in 96 well plates and were used for the total L-glutamate assay when the monolayer was ca. 80% confluent. The media was changed and fresh media containing L-glutamine was added to the 96 well plates, just before incubation of the cells with test compound. The test compound was diluted in 100% DMSO using a two-fold or three-fold serial dilution. Small volumes of the dilutions of test compound were added to the 96 well plates so the final DMSO concentration was 0.5% v/v in the cell culture medium. The cells were incubated at 37° C., 5% CO2, and 95% air for 2 hours. Following the 2 hour incubation, the cells were washed with water 2 times. After the last water wash, 100 μL of 50 mM Tris-HCl pH 7.4 and 0.01% Tween-20 was added to each well and the plate was frozen at −80° C. The 96 well plate was frozen and thawed a total of 3 times and then sonicated for 5 min at 4° C. in a bath sonicator. Following sonication, the 96 well plate was centrifuged for 5 min at 1000 rpm and 10 μL of the supernatant was transferred to a 384 well assay plate.
Total L-glutamate (L-glutamic acid) in the cell lysis supernatant was detected using glutamate oxidase, horseradish peroxidase and Amplex Red reagent (10-acetyl-3,7-dihydroxy phenoxazine, Invitrogen # A22177). In this assay, L-glutamate was oxidized by glutamate oxidase to produce alpha-ketoglutarate (2-oxopentane dioic acid), NH3 and H202. The H2O2 (hydrogen peroxide) was used by horseradish peroxidase (HRP) to oxidize the Amplex Red Reagent to resorufin which is a fluorescent molecule. When resorufin is excited with light with a wavelength 530-560 nm, it emits light at approximately 585 nm. For detection of total L-glutamate in 10 μL of lysate, 15 μL of an enzyme mixture was added to each well of the 384 well assay plate. The enzyme mixture consisted of 50 mM Tris-HCl pH 7.4, 0.01% Tween-20, 50 μM Amplex Red reagent (final concentration), 0.04 U/mL L-glutamate oxidase (final concentration), and 0.125 U/mL HRP (final concentration). The 384 well assay plate was incubated at room temperature for 5 min and then the fluorescence intensity of each well was measured at 585 nm using a 530-560 nm excitation wavelength in a plate based fluorimeter such as an LJL Analyst or a Tecan Infinite plate reader. Standard curves were constructed for this assay using dilutions of a L-glutamate standard. IC50 were calculated by plotting the relative fluorescent units vs log of the inhibitor concentration and fitting the data to the four parameter logistic equation.
Reference: Chapman J. and Zhou M. (1999) Microplate-based fluorometric methods for the enzymatic determination of I-glutamate: application in measuring I-glutamate in food samples. Analytica Chim Acta 402:47-52.

Compound	IC50 [nM]
CC(=O)Nc1nnc(C[C@H]2CC[C@@H](c3nnc(NC(C)=O)s3)C2)s1 (single isomer, unassigned) [Example 7]	3360
CC(=O)Nc1nnc(C2CC[C@H](Cc3nnc(NC(=O)c4ccccc4)s3)C2)s1 (single isomer, unassigned) [Example 12, N-[5-({(cis)-3-[5-(acetylamino)-1,3,4-thiadiazol-2-yl]cyclopentyl}methyl)-1,3,4-thiadiazol-2-yl]benzamide]	> 50000
CC(=O)Nc1nnc(C2CC[C@H](Cc3nnc(NC(=O)Cc4ccccc4)s3)C2)s1 (single isomer, unassigned) [Example 16, N-[5-({(cis)-3-[5-(acetylamino)-1,3,4-thiadiazol-2-yl]cyclopentyl}methyl)-1,3,4-thiadiazol-2-yl]-2-phenylacetamide]	399
CC(=O)Nc1nnc(C2CC[C@H](Cc3nnc(NC(=O)Cc4ccccn4)s3)C2)s1 (single isomer, unassigned) [Example 19, N-[5-({(cis)-3-[5-(acetylamino)-1,3,4-thiadiazol-2-yl]cyclopentyl}methyl)-1,3,4-thiadiazol-2-yl]-2-(pyridin-2-yl)acetamide]	1470
CC(=O)Nc1nnc(C[C@H]2CCC(c3nnc(NC(=O)Cc4ccncn4)s3)C2)s1 (single isomer, unassigned) [Example 21, N-{5-[(cis)-3-{[5-(acetylamino)-1,3,4-thiadiazol-2-yl]methyl}cyclopentyl]-1,3,4-thiadiazol-2-yl}-2-(pyrimidin-4-yl)acetamide]	> 6650
CC(C)(C)C(=O)Nc1nnc(C[C@H]2CC[C@@H](c3nnc(NC(=O)C(C)(C)C)s3)C2)s1 (single isomer, unassigned) [Example 28, N-(5-{[(cis)-3-{5-[(2,2-dimethylpropanoyl)amino]-1,3,4-thiadiazol-2-yl}cyclopentyl]methyl}-1,3,4-thiadiazol-2-yl)-2,2-dimethylpropanamide]	3020
CC(C)(C)C(=O)Nc1nnc(C[C@@H]2CC[C@H](c3nnc(NC(=O)C(C)(C)C)s3)C2)s1 (single isomer, unassigned) [Example 29, N-(5-{[(cis)-3-{5-[(2,2-dimethylpropanoyl)amino]-1,3,4-thiadiazol-2-yl}cyclopentyl]methyl}-1,3,4-thiadiazol-2-yl)-2,2-dimethylpropanamide]	167
C[C@H](C(=O)Nc1nnc([C@@H]2CC[C@H](Cc3nnc(NC(=O)[C@H](C)c4cccnc4)s3)C2)s1)c1cccnc1 (single isomer, unassigned) [Example 31, 2-(pyridin-3-yl)-N-(5-{[(cis)-3-(5-{[2-(pyridin-3-yl)propanoyl]amino}-1,3,4-thiadiazol-2-yl)cyclopentyl]methyl}-1,3,4-thiadiazol-2-yl)propanamide]	639
C[C@H](C(=O)Nc1nnc(C[C@H]2CC[C@@H](c3nnc(NC(=O)[C@@H](C)c4cccnc4)s3)C2)s1)c1cccnc1 (single isomer, unassigned) [Example 32, 2-(pyridin-3-yl)-N-(5-{[(cis)-3-(5-{[2-(pyridin-3-yl)propanoyl]amino}-1,3,4-thiadiazol-2-yl)cyclopentyl]methyl}-1,3,4-thiadiazol-2-yl)propanamide]	201
C[C@H](C(=O)Nc1nnc(C[C@H]2CC[C@@H](c3nnc(NC(=O)[C@H](C)c4cccnc4)s3)C2)s1)c1cccnc1 (single isomer, unassigned) [Example 34, 2-(pyridin-3-yl)-N-(5-{[(cis)-3-(5-{[2-(pyridin-3-yl)propanoyl]amino}-1,3,4-thiadiazol-2-yl)cyclopentyl]methyl}-1,3,4-thiadiazol-2-yl)propanamide]	942
C[C@@H](C(=O)Nc1nnc(C[C@H]2CC[C@@H](c3nnc(NC(=O)[C@H](C)c4cccnc4)s3)C2)s1)c1cccnc1 (single isomer, unassigned) [Example 36, 2-(pyridin-3-yl)-N-(5-{[(cis)-3-(5-{[2-(pyridin-3-yl)propanoyl]amino}-1,3,4-thiadiazol-2-yl)cyclopentyl]methyl}-1,3,4-thiadiazol-2-yl)propanamide]	284
Nc1nnc(C[C@@H]2CC[C@H](c3nnc(N)s3)C2)s1 (single isomer, unassigned) [Example 40]	4580

Stronger by IC50, values ahead:

IC50 [nM]	Compound
104	CC(=O)Nc1nnc(C[C@@H]2CC[C@H](c3nnc(NC(C)=O)s3)C2)s1 (single isomer, unassigned) [Example 5]
1.4	O=C(Cc1ccccc1)Nc1nnc(C[C@@H]2CC[C@H](c3nnc(NC(=O)Cc4ccccc4)s3)C2)s1 (single isomer, unassigned) [Example 8]
33.3	O=C(Cc1ccccc1)Nc1nnc(C[C@H]2CC[C@@H](c3nnc(NC(=O)Cc4ccccc4)s3)C2)s1 (single isomer, unassigned) [Example 10]
23.8	CC(=O)Nc1nnc(C2CC[C@@H](Cc3nnc(NC(=O)c4ccccc4)s3)C2)s1 (single isomer, unassigned) [Example 13, N-[5-({(cis)-3-[5-(acetylamino)-1,3,4-thiadiazol-2-yl]cyclopentyl}methyl)-1,3,4-thiadiazol-2-yl]benzamide]
3.1	CC(=O)Nc1nnc([C@H]2CC[C@@H](Cc3nnc(NC(=O)Cc4ccccc4)s3)C2)s1 (single isomer, unassigned) [Example 14]
12.2	CC(=O)Nc1nnc([C@H]2CC[C@@H](Cc3nnc(NC(=O)Cc4ccccn4)s3)C2)s1 (single isomer, unassigned) [Example 17, N-[5-({(cis)-3-[5-(acetylamino)-1,3,4-thiadiazol-2-yl]cyclopentyl}methyl)-1,3,4-thiadiazol-2-yl]-2-(pyridin-2-yl)acetamide]
137	CC(=O)Nc1nnc(C[C@@H]2CC[C@H](c3nnc(NC(=O)Cc4ccncn4)s3)C2)s1 (single isomer, unassigned) [Example 20]
1.4	O=C(Cc1ccccn1)Nc1nnc(C[C@H]2C[C@@H](c3nnc(NC(=O)Cc4ccccn4)s3)C2)s1 (single isomer, unassigned) [Example 22, 2-(pyridin-2-yl)-N-{5-[(cis-3-{5-[(pyridin-2-ylacetyl)amino]-1,3,4-thiadiazol-2-yl}cyclobutyl)methyl]-1,3,4-thiadiazol-2-yl}acetamide]
9.9	O=C(Cc1ccccn1)Nc1nnc(C[C@H]2C[C@H](c3nnc(NC(=O)Cc4ccccn4)s3)C2)s1 (single isomer, unassigned) [Example 23, 2-(pyridin-2-yl)-N-{5-[(trans-3-{5-[(pyridin-2-ylacetyl)amino]-1,3,4-thiadiazol-2-yl}cyclobutyl)methyl]-1,3,4-thiadiazol-2-yl}acetamide]
7	C[C@H](C(=O)Nc1nnc(C[C@@H]2CC[C@H](c3nnc(NC(=O)[C@@H](C)c4cccnc4)s3)C2)s1)c1cccnc1 (single isomer, unassigned) [Example 33, 2-(pyridin-3-yl)-N-(5-{[(cis)-3-(5-{[2-(pyridin-3-yl)propanoyl]amino}-1,3,4-thiadiazol-2-yl)cyclopentyl]methyl}-1,3,4-thiadiazol-2-yl)propanamide]
50.7	C[C@H](C(=O)Nc1nnc([C@H]2CC[C@@H](Cc3nnc(NC(=O)[C@H](C)c4cccnc4)s3)C2)s1)c1cccnc1 (single isomer, unassigned) [Example 35, 2-(pyridin-3-yl)-N-(5-{[(cis)-3-(5-{[2-(pyridin-3-yl)propanoyl]amino}-1,3,4-thiadiazol-2-yl)cyclopentyl]methyl}-1,3,4-thiadiazol-2-yl)propanamide]
19.4	C[C@@H](C(=O)Nc1nnc(C[C@@H]2CC[C@H](c3nnc(NC(=O)[C@H](C)c4cccnc4)s3)C2)s1)c1cccnc1 (single isomer, unassigned) [Example 37, 2-(pyridin-3-yl)-N-(5-{[(cis)-3-(5-{[2-(pyridin-3-yl)propanoyl]amino}-1,3,4-thiadiazol-2-yl)cyclopentyl]methyl}-1,3,4-thiadiazol-2-yl)propanamide]
136	C[C@H](C(=O)Nc1nnc(C[C@@H]2CC[C@H](c3nnc(NC(=O)[C@H](C)c4cccnc4)s3)C2)s1)c1cccnc1 (single isomer, unassigned) [Example 38, 2-(pyridin-3-yl)-N-(5-{[(cis)-3-(5-{[2-(pyridin-3-yl)propanoyl]amino}-1,3,4-thiadiazol-2-yl)cyclopentyl]methyl}-1,3,4-thiadiazol-2-yl)propanamide]
